Data from patent US20190308035A1, “A NON-INVASIVE METHOD FOR SELECTIVE NEURAL STIMULATION BY ULTRASOUND” (priority 2018, published 2019).
“Also recorded” adds a separate entry of the source. Bridge positions count the residues as written; N and C are the ends. Ends that are not written are not given here.

Legend:
CLU199 cells = assay: qPCR array of cAMP/calcium signalling genes in CLU199 cells; assay type: cell-based, mouse; conditions: array of 84 genes, Yodal 1 μM, vs untreated control
Experimental: Ultrasonic effects in CLU199 cells were explored using a qPCR array that probes 84 genes known to have Ca2+ responsive elements of various kinds.
A qRT-PCR array that explores genes that regulate calcium-related signalling (RT2 Pathway Finder) was used to evaluate how ultrasound treatment affects cellular signalling. Cells were also either pre-treated with GsMTx-4 (10 μM) before ultrasound or treated with Yodal (1 μM) by way of comparison. Results of the PCR were uploaded to Qiagen/SABiosciences online suite for data analysis, and clustergrams were generated using this software. Information about various subgroups of genes described here (FIG. 2J) were obtained from the product literature.
CLU199 cells seeded in 35 mm dishes were treated with ultrasound, Yodal or GsMTx-4 as appropriate. Total RNA was collected as described in section 7, and the concentration measured on NanoDrop™ One (Thermo Fisher Scientific). Samples with 260/280>1.8 and 260/230>2.0 were run on a 1% agarose gel containing bleach to check for RNA integrity (2). […] Ct values were calculated using the Quantstudio™ software, exported into a spreadsheet and uploaded to SABiosciences' online array data analysis software (accessible at: http://pcrdataanalysis.sabiosciences.com/per/arrayanalysis.php). […] Resulting clustergrams and a spreadsheet containing the analyzed results were obtained from this software. […]

Piezo1 [1] = target: T1, Piezo1 (Mus musculus, UniProt E2JF22); assay: Calcium imaging (Cal590) in 293T cells overexpressing Piezo1; assay type: cell-based; parameters: EGFP; expressed in transfected cells; host or cells: 293T cells (ATCC), pcDNA3.1 Piezo1-EGFP plasmid provided by Dr. Ardem Patapoutian; conditions: Yodal; 293T cells overexpressing Piezo1 vs control cells
Piezo1 [2] = target: T1, Piezo1; assay: Western blot of p-CaMKII and p-CREB in CLU199 cells; assay type: cell-based; parameters: Expression of Piezo1 in CLU199 cells was confirmed through RT-PCR; host or cells: mHippoE-18 (CLU199) embryonic mouse hippocampal cell line
Experimental: To evaluate effects on cell signalling, the phosphorylated forms of the Calcium/calmodulin-dependent protein kinase type II (p-CaMKII), and the transcription factor CREB (p-CREB) (28), both crucial players in Ca2+ signalling were analysed.
0.3 MPa ultrasound was then used to treat CLU199 cells with or without Yodal, or the Piezo1 blocker GsMTx-4 [7].
SMARTpool ON-TARGETplus Piezo1 siRNA (L-061455-00-0005) and ON-TARGETplus Non-Targeting Pool (D-001810-10) siRNA were obtained from Dharmacon. Transfection complexes were prepared by incubating siRNA with Lipofectamine RNAiMAX (Invitrogen) in Opti-MEM for 5 minutes at room temperature. 300 μl of complexes added per 35 mm dish or collagen-coated coverslips (5 μg/cm2). 1.5×10^6 cells were added per dish in fully-supplemented DMEM such that the final siRNA concentration was 125 nM. Cells were incubated for 48 hours post-transfection, and then used for further experiments.
(§1) CLU199 cells or primary cortical neurons at DIV 10 were treated with ultrasound at acoustic pressures of 0.1, 0.3 or 0.5 MPa for 20 minutes with 20 s interval inside a humified incubator, 37° C., 5% CO2. The ultrasonic stimulation system and treatment parameters are the same as those described in section 4. Yodal (Tocris Bioscience) was used as a Piezo1 agonist with a concentration of 1 μM, while GsMTx-4 (Abcam) was used as a Piezo1 blocker at a concentration of 10 μM. Yodal was added to culture media, followed by a 20-minute incubation or immediate ultrasound treatment. GsMTx-4 was added to culture media, allowed for 30 minutes incubation, and followed by a further 20-minute incubation or ultrasound treatment.
Cells were lysed with RIPA buffer (EMD Millipore), supplemented with 1× Halt™ Protease and Phosphatase Inhibitor Cocktail (Thermo Fisher Scientific) on ice, centrifuged to clear the lysate, and protein concentrations measured using the Bio-Rad protein assay. 30 or 50 μg total protein per well was loaded on 10% SDS-PAGE gels, electrophoresed, and transferred to methanol-activated PVDF membranes. Membranes were blocked with 3% BSA in Tris-buffered-saline+0.05% Tween-20 (TBST). Membranes were incubated in primary antibody diluted in 5% BSA in TBST overnight, washed with TBST and incubated in secondary antibody solutions, diluted in blocking buffer, for 1 hour at room temperature. […]
Protein levels were quantified through image densitometry using ImageJ. Protein levels were expressed as a fold change compared to the untreated control, an average ±SEM of at least three independent experiments, except in FIG. 2E. Statistical significance was calculated using a two-tailed unpaired student's t-test and P values below 0.05 were considered significant.

Piezo1 [3] = target: T1, Piezo1; assay: Immunocytochemical staining of c-Fos, p-CaMKII and p-CREB in primary cortical neurons; assay type: cell-based; parameters: Expression of Piezo1 in CLU199 cells was confirmed through RT-PCR; host or cells: mHippoE-18 (CLU199) embryonic mouse hippocampal cell line; conditions: GsMTx-4 10 μM followed by 0.3 MPa ultrasound
Experimental: The expression of c-Fos, p-CaMKII and p-CREB was investigated by immunocytochemical staining in primary cortical neurons untreated, treated by ultrasound or treated with GsMTx-4 (10 μM) followed by ultrasound. Each stimulus contained 200 cycles, at 1 kHz RPF with 200 NTB of 500 kHz ultrasound at 0.3 MPa and the results are shown in FIG. 2I.
Primary cortical neurons from embryonic mice brains were harvested as described previously with slight modifications. Briefly, pregnant mice were sacrificed at E16.5-E17, and brains from the embryonic mice were collected. They were then dissected under a microscope to separate the cortex from the other brain mass. Cortical cells were dispersed and seeded into culture dishes or collagen-coated glass coverslips (4 μg/cm2). At DIV 10, the cells were used for further experiments.
as §1
CLU199 cells and primary neurons at DIV 10, including treated with (+) or without (−) ultrasound, were fixed using 4% paraformaldehyde+PBS and permeabilized using 0.1% Triton X-100+PBS. […] The number of c-Fos+ cells were determined by counting the number of DAPI and c-Fos signals co-located with DAPI from 10 FOVs photographed per condition. Results were expressed as a percentage of c-Fos versus DAPI signals, and were subjected to a one-way ANOVA followed by a post-hoc Tukey test. […]

[4] = Yodal 1 μM alone, vs untreated control
[5] = GsMTx-4 10 μM incubation before 0.3 MPa ultrasound

T1 sequence (E2JF22 whole entry): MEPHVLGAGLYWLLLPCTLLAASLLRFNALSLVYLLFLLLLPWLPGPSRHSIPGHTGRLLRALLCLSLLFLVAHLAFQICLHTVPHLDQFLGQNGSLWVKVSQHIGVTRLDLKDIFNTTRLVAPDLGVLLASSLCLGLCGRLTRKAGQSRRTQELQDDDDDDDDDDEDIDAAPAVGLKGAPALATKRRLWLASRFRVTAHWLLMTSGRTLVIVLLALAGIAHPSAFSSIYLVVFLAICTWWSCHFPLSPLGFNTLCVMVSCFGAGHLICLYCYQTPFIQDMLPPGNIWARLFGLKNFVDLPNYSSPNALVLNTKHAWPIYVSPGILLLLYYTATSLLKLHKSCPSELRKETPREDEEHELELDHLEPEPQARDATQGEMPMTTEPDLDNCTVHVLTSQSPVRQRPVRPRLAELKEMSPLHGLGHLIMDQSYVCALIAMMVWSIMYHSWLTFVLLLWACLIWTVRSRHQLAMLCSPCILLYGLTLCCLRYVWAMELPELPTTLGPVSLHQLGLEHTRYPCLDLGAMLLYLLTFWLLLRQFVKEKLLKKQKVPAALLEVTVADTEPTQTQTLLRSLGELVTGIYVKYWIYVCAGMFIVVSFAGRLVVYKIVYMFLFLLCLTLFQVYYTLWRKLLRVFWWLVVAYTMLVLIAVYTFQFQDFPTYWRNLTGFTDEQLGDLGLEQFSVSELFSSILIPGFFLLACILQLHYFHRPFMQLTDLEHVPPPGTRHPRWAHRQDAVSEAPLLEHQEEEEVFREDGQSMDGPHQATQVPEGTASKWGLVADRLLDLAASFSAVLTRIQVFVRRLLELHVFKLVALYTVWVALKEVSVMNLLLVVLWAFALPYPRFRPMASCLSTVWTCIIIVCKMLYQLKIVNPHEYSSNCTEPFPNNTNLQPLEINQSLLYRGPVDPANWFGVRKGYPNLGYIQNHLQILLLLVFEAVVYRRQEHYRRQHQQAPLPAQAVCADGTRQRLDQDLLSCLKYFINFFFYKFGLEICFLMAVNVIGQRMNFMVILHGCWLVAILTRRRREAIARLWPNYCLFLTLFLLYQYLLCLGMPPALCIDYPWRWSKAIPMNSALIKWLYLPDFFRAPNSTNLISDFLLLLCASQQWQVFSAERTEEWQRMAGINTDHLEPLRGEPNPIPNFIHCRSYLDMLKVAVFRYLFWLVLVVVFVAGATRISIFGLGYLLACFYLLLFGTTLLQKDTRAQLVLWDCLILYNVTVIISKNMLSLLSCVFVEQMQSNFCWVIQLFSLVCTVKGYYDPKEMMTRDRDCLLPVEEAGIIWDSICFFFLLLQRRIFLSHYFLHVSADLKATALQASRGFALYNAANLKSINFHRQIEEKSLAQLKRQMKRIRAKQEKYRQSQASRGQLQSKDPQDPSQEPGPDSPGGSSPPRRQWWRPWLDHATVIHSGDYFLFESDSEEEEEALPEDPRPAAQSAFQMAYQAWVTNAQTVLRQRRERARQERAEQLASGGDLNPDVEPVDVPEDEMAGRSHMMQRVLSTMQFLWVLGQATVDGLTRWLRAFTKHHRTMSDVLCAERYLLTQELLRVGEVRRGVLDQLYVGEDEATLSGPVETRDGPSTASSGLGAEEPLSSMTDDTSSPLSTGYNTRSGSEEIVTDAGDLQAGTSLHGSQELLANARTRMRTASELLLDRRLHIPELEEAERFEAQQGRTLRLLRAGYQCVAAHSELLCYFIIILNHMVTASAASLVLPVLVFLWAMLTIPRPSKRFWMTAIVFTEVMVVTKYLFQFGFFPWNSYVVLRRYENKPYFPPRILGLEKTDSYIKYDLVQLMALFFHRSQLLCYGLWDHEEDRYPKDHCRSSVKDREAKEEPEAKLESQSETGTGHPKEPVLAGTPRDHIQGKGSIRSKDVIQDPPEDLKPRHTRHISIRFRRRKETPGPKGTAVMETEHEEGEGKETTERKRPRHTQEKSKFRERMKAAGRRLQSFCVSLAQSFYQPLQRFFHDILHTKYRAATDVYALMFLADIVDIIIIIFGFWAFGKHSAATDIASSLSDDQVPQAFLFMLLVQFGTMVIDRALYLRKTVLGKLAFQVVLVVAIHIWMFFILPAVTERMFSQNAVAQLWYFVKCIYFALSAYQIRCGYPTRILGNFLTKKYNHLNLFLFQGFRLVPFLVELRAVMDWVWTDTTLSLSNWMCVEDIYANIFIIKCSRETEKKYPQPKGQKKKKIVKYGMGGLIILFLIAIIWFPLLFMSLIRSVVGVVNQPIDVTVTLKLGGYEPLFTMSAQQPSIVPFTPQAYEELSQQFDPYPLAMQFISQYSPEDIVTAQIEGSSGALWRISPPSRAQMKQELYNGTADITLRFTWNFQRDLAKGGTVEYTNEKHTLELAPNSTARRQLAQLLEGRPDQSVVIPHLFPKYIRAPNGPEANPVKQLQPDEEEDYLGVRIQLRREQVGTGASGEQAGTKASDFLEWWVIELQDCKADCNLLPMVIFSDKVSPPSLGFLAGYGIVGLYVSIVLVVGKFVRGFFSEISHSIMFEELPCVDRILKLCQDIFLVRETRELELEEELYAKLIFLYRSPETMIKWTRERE

Compound: Clc1cccc(Cl)c1CSc1nnc(-c2cnccn2)s1 [Yodal]
- number of genes co-downregulated by ultrasound and Yodal (CLU199 cells): 23
- number of genes co-upregulated by ultrasound and Yodal (CLU199 cells): 43
- calcium influx (Piezo1 [1]): Significant Ca2+ increase; also recorded: significantly higher calcium influx
- p-CREB level (Piezo1 [2]; [4]): increased; also recorded: upregulate
- p-CaMKII level (Piezo1 [2]; [4]): increased; also recorded: upregulate

Compound: GsMTx-4: Piezo1-specific blocker (Abcam), used at 10 μM (GCLEFWWKCNPNDDKCCRPKLKCSKLFKLCNFSF-NH2; disulfide 16-30, 2-17, 9-23; ends not checked)
- p-CREB level after ultrasound (Piezo1 [2]; [5]): reduced to levels comparable to those in the untreated control; also recorded: inhibits this effect
- p-CaMKII level after ultrasound (Piezo1 [2]; [5]): reduced to levels comparable to those in the untreated control; also recorded: inhibits this effect
- level of p-CREB (Piezo1 [3]): affected
- level of p-CaMKII (Piezo1 [3]): affected
- ultrasound-induced c-Fos expression in the nuclei (Piezo1 [3]): inhibited this effect
